# How the values were obtained:
# [1] = tested on: TK-10; assay: Cytotoxicity against human TK10 cells assessed as cellular growth at 1 uM after 48 hrs by SRB assay relative to control; format: functional
# [2] = tested on: PC-3; assay: Cytotoxicity against human PC3 cells assessed as cellular growth at 0.01 uM after 48 hrs by SRB assay relative to control; format: functional
# [3] = tested on: RXF 393; assay: Cytotoxicity against human RXF393 cells assessed as cellular growth at 0.1 uM after 48 hrs by SRB assay relative to control; format: functional
# [4] = tested on: HOP-92; assay: Cytotoxicity against human HOP92 cells assessed as cellular growth at 1 uM after 48 hrs by SRB assay relative to control; format: functional
# [5] = tested on: MDA-MB-435; assay: Cytotoxicity against human MDA-MB-435 cells after 48 hrs by SRB assay; format: functional; conditions: MDA-MB-435, 48 h
# [6] = tested on: KM12; assay: Cytotoxicity against human KM12 cells assessed as cellular growth at 0.01 uM after 48 hrs by SRB assay relative to control; format: functional
# [7] = tested on: SNB-75; assay: Cytotoxicity against human SNB75 cells after 48 hrs by SRB assay; format: functional; conditions: SNB-75, 48 h
# [8] = tested on: SK-MEL-28; assay: Cytotoxicity against human SK-MEL-28 cells after 48 hrs by SRB assay; format: functional; conditions: SK-MEL-28, 48 h
# [9] = tested on: OVCAR-5; assay: Cytotoxicity against human OVCAR5 cells after 48 hrs by SRB assay; format: functional; conditions: OVCAR-5, 48 h
# [10] = tested on: LOX IMVI; assay: Cytotoxicity against human LOXIMVI cells after 48 hrs by SRB assay; format: functional
# [11] = tested on: SW-620; assay: Cytotoxicity against human SW620 cells assessed as cellular growth at 10 uM after 48 hrs by SRB assay relative to control; format: functional
# [12] = tested on: MDA-MB-231; assay: Cytotoxicity against human MDA-MB-231 cells assessed as cellular growth at 0.01 uM after 48 hrs by SRB assay relative to control; format: functional
# [13] = tested on: SNB-19; assay: Cytotoxicity against human SNB19 cells assessed as cellular growth at 100 uM after 48 hrs by SRB assay relative to control; format: functional
# [14] = tested on: K562; assay: Cytotoxicity against human K562 cells assessed as cellular growth at 100 uM after 48 hrs by SRB assay relative to control; format: functional
# [15] = tested on: Malme-3M; assay: Cytotoxicity against human MALME-3M cells assessed as cellular growth at 100 uM after 48 hrs by SRB assay relative to control; format: functional
# [16] = tested on: UO-31; assay: Cytotoxicity against human UO31 cells assessed as cellular growth at 1 uM after 48 hrs by SRB assay relative to control; format: functional
# [17] = tested on: SR; assay: Cytotoxicity against human SR cells after 48 hrs by SRB assay; format: functional
# [18] = tested on: NCI-H322M; assay: Cytotoxicity against human NCI-H322M cells assessed as cellular growth at 0.1 uM after 48 hrs by SRB assay relative to control; format: functional
# [19] = tested on: SK-MEL-28; assay: Cytotoxicity against human SK-MEL-28 cells assessed as cellular growth at 0.1 uM after 48 hrs by SRB assay relative to control; format: functional
# [20] = tested on: PC-3; assay: Cytotoxicity against human PC3 cells after 48 hrs by SRB assay; format: functional; conditions: PC-3, 48 h
# [21] = tested on: OVCAR-8; assay: Cytotoxicity against human OVCAR8 cells assessed as cellular growth at 100 uM after 48 hrs by SRB assay relative to control; format: functional
# [22] = tested on: HT-29; assay: Cytotoxicity against human HT-29 cells assessed as cellular growth at 0.01 uM after 48 hrs by SRB assay relative to control; format: functional
# [23] = tested on: RXF 393; assay: Cytotoxicity against human RXF393 cells assessed as cellular growth at 1 uM after 48 hrs by SRB assay relative to control; format: functional
# [24] = tested on: UACC-62; assay: Cytotoxicity against human UACC62 cells assessed as cellular growth at 0.1 uM after 48 hrs by SRB assay relative to control; format: functional
# [25] = tested on: Mus musculus; assay: Toxicity in mouse at 100 to 400 mg/kg measured for 2 weeks; format: organism-based; design: dose 100-400 mg/kg; conditions: in vivo, 336 h
# [26] = tested on: SR; assay: Cytotoxicity against human SR cells assessed as cellular growth at 0.1 uM after 48 hrs by SRB assay relative to control; format: functional
# [27] = tested on: HOP-62; assay: Cytotoxicity against human HOP62 cells assessed as cellular growth at 0.01 uM after 48 hrs by SRB assay relative to control; format: functional
# [28] = tested on: HOP-62; assay: Cytotoxicity against human HOP62 cells after 48 hrs by SRB assay; format: functional; conditions: HOP-62, 48 h
# [29] = tested on: MOLT-4; assay: Cytotoxicity against human MOLT4 cells assessed as cellular growth at 0.1 uM after 48 hrs by SRB assay relative to control; format: functional
# [30] = tested on: MOLT-4; assay: Cytotoxicity against human MOLT4 cells assessed as cellular growth at 100 uM after 48 hrs by SRB assay relative to control; format: functional
# [31] = tested on: CAKI-1; assay: Cytotoxicity against human Caki1 cells after 48 hrs by SRB assay; format: functional; conditions: CAKI-1, 48 h
# [32] = tested on: HCC 2998; assay: Cytotoxicity against human HCC2998 cells assessed as cellular growth at 100 uM after 48 hrs by SRB assay relative to control; format: functional
# [33] = tested on: HCC 2998; assay: Cytotoxicity against human HCC2998 cells assessed as cellular growth at 0.01 uM after 48 hrs by SRB assay relative to control; format: functional
# [34] = read-out: LC50 (the source's name)
# [35] = read-out: pLC50 (the source's name) (converted)
smiles,measurement,setting,value
O=C(CCCn1c2c(sc3ccccc32)c(=O)n2nnc(-c3ccccc3)c12)NCCc1c[nH]cn1,Activity,[1],121%
same,Activity,[2],86%
same,Activity,[3],125%
same,Activity,[4],93%
same,GI50,[5]; read-out: GI50,0.345 µM
same,CC50,[5]; [34],4.7 µM
same,TGI,[5]; read-out: TGI,1.87 µM
same,GI50,[5]; read-out: pGI50 (converted),0.347 µM
same,CC50,[5]; [35],4.68 µM
same,TGI,[5]; read-out: pTGI (converted),1.86 µM
same,Activity,[6],106%
same,GI50,[7]; read-out: GI50,1.95 µM
same,CC50,[7]; [34],6.32 µM
same,TGI,[7]; read-out: TGI,3.51 µM
same,GI50,[7]; read-out: pGI50 (converted),1.95 µM
same,CC50,[7]; [35],6.31 µM
same,TGI,[7]; read-out: pTGI (converted),3.55 µM
same,GI50,[8]; read-out: GI50,1.69 µM
same,CC50,[8]; [34],5.91 µM
same,TGI,[8]; read-out: TGI,3.17 µM
same,GI50,[8]; read-out: pGI50 (converted),1.7 µM
same,CC50,[8]; [35],5.89 µM
same,TGI,[8]; read-out: pTGI (converted),3.16 µM
same,GI50,[9]; read-out: GI50,0.0565 µM
same,CC50,[9]; [34],4.06 µM
same,TGI,[9]; read-out: TGI,1.36 µM
same,GI50,[9]; read-out: pGI50 (converted),0.0562 µM
same,CC50,[9]; [35],4.07 µM
same,TGI,[9]; read-out: pTGI (converted),1.35 µM
same,GI50,[10]; read-out: GI50,1.51 µM
same,CC50,[10]; [34],5.49 µM
same,TGI,[10]; read-out: TGI,2.88 µM
same,GI50,[10]; read-out: pGI50 (converted),1.51 µM
same,CC50,[10]; [35],5.5 µM
same,TGI,[10]; read-out: pTGI (converted),2.88 µM
same,Activity,[11],-84.52%
same,Activity,[12],115%
same,Activity,[13],-84%
same,Activity,[14],-100%
same,Activity,[15],-72%
same,Activity,[16],69%
same,GI50,[17]; read-out: GI50,0.218 µM
same,CC50,[17]; [34],4.99 µM
same,TGI,[17]; read-out: TGI,0.664 µM
same,GI50,[17]; read-out: pGI50 (converted),0.219 µM
same,CC50,[17]; [35],5.01 µM
same,TGI,[17]; read-out: pTGI (converted),0.661 µM
same,Activity,[18],78%
same,Activity,[19],121%
same,GI50,[20]; read-out: GI50,0.0603 µM
same,LC50,[20]; read-out: LC50,7.32 µM
same,TGI,[20]; read-out: TGI,2.21 µM
same,GI50,[20]; read-out: pGI50 (converted),0.0603 µM
same,LC50,[20]; read-out: pLC50 (converted),7.24 µM
same,TGI,[20]; read-out: pTGI (converted),2.19 µM
same,Activity,[21],-40%
same,Activity,[22],113%
same,Activity,[23],113%
same,Activity,[24],96%
same,Activity,[25],Non-toxic
same,Activity,[26],85%
same,Activity,[27],112%
same,GI50,[28]; read-out: GI50,1.31 µM
same,CC50,[28]; [34],6.32 µM
same,TGI,[28]; read-out: TGI,2.87 µM
same,GI50,[28]; read-out: pGI50 (converted),1.32 µM
same,CC50,[28]; [35],6.31 µM
same,TGI,[28]; read-out: pTGI (converted),2.88 µM
CN1CCN(CCCn2c3c(sc4ncccc43)c(=O)n3nnc(-c4ccccc4)c23)CC1,Activity,[1],119%
same,Activity,[3],93%
same,Activity,[4],82%
same,GI50,[5]; read-out: GI50,1.87 µM
same,CC50,[5]; [34],6.68 µM
same,TGI,[5]; read-out: TGI,3.54 µM
same,GI50,[5]; read-out: pGI50 (converted),1.86 µM
same,CC50,[5]; [35],6.76 µM
same,TGI,[5]; read-out: pTGI (converted),3.55 µM
same,Activity,[6],101%
same,GI50,[7]; read-out: GI50,7.71 µM
same,CC50,[7]; [34],48.8 µM
same,TGI,[7]; read-out: TGI,21.7 µM
same,GI50,[7]; read-out: pGI50 (converted),7.76 µM
same,CC50,[7]; [35],49 µM
same,TGI,[7]; read-out: pTGI (converted),21.9 µM
same,GI50,[8]; read-out: GI50,15.8 µM
same,CC50,[8]; [34],55.5 µM
same,TGI,[8]; read-out: TGI,29.6 µM
same,GI50,[8]; read-out: pGI50 (converted),15.8 µM
same,CC50,[8]; [35],55 µM
same,TGI,[8]; read-out: pTGI (converted),29.5 µM
same,Activity,[29],102%
same,Activity,[30],-56%
same,GI50,[9]; read-out: GI50,2.69 µM
same,CC50,[9]; [34],> 100 µM
same,TGI,[9]; read-out: TGI,7.35 µM
same,GI50,[9]; read-out: pGI50 (converted),2.69 µM
same,CC50,[9]; [35],> 100 µM
same,TGI,[9]; read-out: pTGI (converted),7.41 µM
same,GI50,[10]; read-out: GI50,1.66 µM
same,TGI,[10]; read-out: TGI,3.36 µM
same,GI50,[10]; read-out: pGI50 (converted),1.66 µM
same,TGI,[10]; read-out: pTGI (converted),3.39 µM
same,GI50,[31]; read-out: GI50,1.63 µM
same,CC50,[31]; [34],6.65 µM
same,TGI,[31]; read-out: TGI,3.29 µM
same,GI50,[31]; read-out: pGI50 (converted),1.62 µM
same,CC50,[31]; [35],6.61 µM
same,TGI,[31]; read-out: pTGI (converted),3.31 µM
same,Activity,[11],-63%
same,Activity,[12],100%
same,Activity,[13],-42%
same,Activity,[14],-29%
same,Activity,[15],-82%
same,Activity,[16],51%
same,GI50,[17]; read-out: GI50,2.25 µM
same,TGI,[17]; read-out: TGI,4.74 µM
same,GI50,[17]; read-out: pGI50 (converted),2.24 µM
same,TGI,[17]; read-out: pTGI (converted),4.79 µM
same,Activity,[18],80%
same,Activity,[32],-76%
same,Activity,[19],95%
same,Activity,[33],104%
same,Activity,[21],-15%
same,Activity,[23],93%
same,Activity,[24],79%
same,Activity,[26],104%
same,Activity,[27],97%
same,GI50,[28]; read-out: GI50,1.78 µM
same,CC50,[28]; [34],6.11 µM
same,TGI,[28]; read-out: TGI,3.3 µM
same,GI50,[28]; read-out: pGI50 (converted),1.78 µM
same,CC50,[28]; [35],6.17 µM
same,TGI,[28]; read-out: pTGI (converted),3.31 µM
